Laboratory results as given in patent US6028201A, “Inhibitors of farnesyl-protein transferase” (Merck & Co., Inc., priority 1998, dated 2000).
Structures can show the parent of a compound that is named as a salt.

Target: T1, human FPTase (Homo sapiens, UniProt P49354+P49356)
T1 construct: made in house
Assay: In vitro inhibition of human FPTase
Assay type: biochemical
Conditions: 100 nM Ras-CVIM substrate, [3H]-FPP, 30 min; read-out: IC50 against human FPTase

IC50 | Structure (SMILES)
< 10 µM | CCCCCN(Cc1cncn1Cc1ccc(C#N)cc1)C(=O)Nc1cccc(Cl)c1 [Example 1, N-(3-chlorophenyl)-N'-[1-(4-cyanobenzyl)-5-imidazolylmethyl]-N'-(n-pentyl)urea hydrochloride]
< 10 µM | CCCCCN(Cc1cncn1Cc1ccc(C#N)cc1)C(=O)N(C)c1cccc(Cl)c1 [Example 2, N-(3-chlorophenyl)-N-methyl-N'-[1-(4-cyanobenzyl)-5-imidazolylmethyl]-N'-(n-pentyl)urea hydrochloride]
